This passage reports TGI results from PubChem BioAssay (NCI).

The structures appear in SMILES notation.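 All cell lines were grown in 96-well plates and treated with compound for 48 hours. TGI: total growth inhibition.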 Where a SMILES comes first, the peptide text is derived from it. The star is where a group is joined. Boc = CC(C)(C)OC(=O)*

The subject of the first assay is A498 renal. The assay is described as follows: DTP human tumour cell line panel, 48 h.
The term TGI denotes the concentration giving total growth inhibition. With `COc1ccc2c(c1)C(=O)C1CC(=O)CCC21` (stereo unspecified), the TGI is over 100 µM.
Still for that read-out and setting: then `O=c1nc(NC2CCCCO2)ccn1CCO` (stereo unspecified), with over 100 µM; and `CCCP1(=O)C=C(C)C(=C(Cl)Cl)C(C)=C1` (stereo unspecified), with over 100 µM.
The same measure, in the same setting: for `CCCCCCCOc1ccc(/C=C\c2cc[n+](CCCCCCCC[n+]3ccc(/C=C\c4ccc(OCCCCCCC)cc4)cc3)cc2)cc1` the value was 80.8 µM; for `CC(C)(C)OC(=O)NC(Cc1ccc(O)cc1)C(=O)N1CCCC1C(=O)O` (stereo not drawn) (Boc-Tyr-Pro-OH; configuration not given here), over 100 µM; for `O=C(O)c1ccc(C2COc3ccc(Cl)cc3C2)cc1` (stereo unspecified), over 100 µM.
On the same count and under the same terms, then `c1ccc2c(c1)C1CCCCCC21N1CCOCC1` (stereo unspecified), with over 100 µM; and `O=C(CSc1nnc(Cc2ccccc2)o1)Nc1ccccc1`, with over 100 µM; and `Cc1ccc(/C=C/C(=O)C(C)(C)CN2CCCCC2)cc1`, with 19.5 µM.
Consider `O=C1OC(Cc2ccccc2)(N2CCCC2=O)C1c1ccccc1` (stereo unspecified), for which the TGI is over 100 µM.

A further assay relates to ACHN renal. The assay is described as follows: DTP human tumour cell line panel, 48 h.
As for `COc1ccc2c(c1)C(=O)C1CC(=O)CCC21` (stereo unspecified), the concentration for total growth inhibition (TGI) is over 100 µM.
As for `COc1cccc(NC(=O)CSc2nnc(-c3ccc(NC(C)=O)cc3)o2)c1`, the TGI was over 100 µM.
The compound `Clc1ccc(Nc2nc3ccccc3nc2-c2cccs2)cc1Cl` had a TGI of over 100 µM.
`CCn1c2ccccc2c2ccc3c(c21)C(=O)C=CC3=O` yielded a TGI of 30.2 µM.
With `O=c1nc(NC2CCCCO2)ccn1CCO` (stereo unspecified), the TGI was over 100 µM.
Same read-out and setting: for `COC(=O)c1onc(-c2c(OC)cc(OC)cc2OC)c1C(=O)OC` the value was over 100 µM; for `CCCP1(=O)C=C(C)C(=C(Cl)Cl)C(C)=C1` (stereo unspecified), over 100 µM.
Still for that read-out and setting: for `CCCCCCCOc1ccc(/C=C\c2cc[n+](CCCCCCCC[n+]3ccc(/C=C\c4ccc(OCCCCCCC)cc4)cc3)cc2)cc1` the value was over 100 µM; for `CC(C)(C)OC(=O)NC(Cc1ccc(O)cc1)C(=O)N1CCCC1C(=O)O` (stereo not drawn) (Boc-Tyr-Pro-OH; configuration not given here), over 100 µM; for `O=C(O)c1ccc(C2COc3ccc(Cl)cc3C2)cc1` (stereo unspecified), over 100 µM.
Take `CC(=O)NC(CCCNC(=O)N(CCCl)N=O)C(=O)NCc1ccccc1` (stereo unspecified): the TGI is over 100 µM.
On to `c1ccc2c(c1)C1CCCCCC21N1CCOCC1` (stereo unspecified), for which the TGI was over 100 µM.
On the same count and under the same terms, for `COc1cccc(OC)c1C(=O)OCc1ccccc1` the value was over 100 µM.
Same read-out and setting: for `O=C(CSc1nnc(Cc2ccccc2)o1)Nc1ccccc1` the value was over 100 µM; for `Cc1ccc(/C=C/C(=O)C(C)(C)CN2CCCCC2)cc1`, 23.7 µM.
As for `O=C1OC(Cc2ccccc2)(N2CCCC2=O)C1c1ccccc1` (stereo unspecified), the TGI is over 100 µM.

Another assay deals with HCT-116 colon. Briefly: DTP human tumour cell line panel, 48 h.
As to `COc1ccc2c(c1)C(=O)C1CC(=O)CCC21` (stereo unspecified), the TGI is over 100 µM.
For the compound `COc1cccc(NC(=O)CSc2nnc(-c3ccc(NC(C)=O)cc3)o2)c1`, the TGI is over 100 µM.
Still for that read-out and setting: then `Clc1ccc(Nc2nc3ccccc3nc2-c2cccs2)cc1Cl`, with over 100 µM.
With `CCn1c2ccccc2c2ccc3c(c21)C(=O)C=CC3=O`, the TGI is 15.4 µM. That is a double-digit micromolar value.
Turning to `O=c1nc(NC2CCCCO2)ccn1CCO` (stereo unspecified), the TGI was over 100 µM.
Regarding `COC(=O)c1onc(-c2c(OC)cc(OC)cc2OC)c1C(=O)OC`, the TGI was over 100 µM.
The same measure, in the same setting: for `CCCP1(=O)C=C(C)C(=C(Cl)Cl)C(C)=C1` (stereo unspecified) the value was over 100 µM; for `CCCCCCCOc1ccc(/C=C\c2cc[n+](CCCCCCCC[n+]3ccc(/C=C\c4ccc(OCCCCCCC)cc4)cc3)cc2)cc1`, 26.5 µM.
Still for that read-out and setting: then `CC(C)(C)OC(=O)NC(Cc1ccc(O)cc1)C(=O)N1CCCC1C(=O)O` (stereo not drawn) (Boc-Tyr-Pro-OH; configuration not given here), with over 100 µM.
`O=C(O)c1ccc(C2COc3ccc(Cl)cc3C2)cc1` (stereo unspecified) showed a TGI of over 100 µM.
The same measure, in the same setting: for `CC(=O)NC(CCCNC(=O)N(CCCl)N=O)C(=O)NCc1ccccc1` (stereo unspecified) the value was over 100 µM.
Same read-out and setting: for `c1ccc2c(c1)C1CCCCCC21N1CCOCC1` (stereo unspecified) the value was over 100 µM; for `COc1cccc(OC)c1C(=O)OCc1ccccc1`, over 100 µM; for `O=C(CSc1nnc(Cc2ccccc2)o1)Nc1ccccc1`, over 100 µM.
In turn, `Cc1ccc(/C=C/C(=O)C(C)(C)CN2CCCCC2)cc1` returned a TGI of 22.6 µM.
The compound `CC(=O)CN(Cc1cc(C)c2c(c1)c1ccccc1n2Cc1ccccc1)S(=O)(=O)c1ccc(C)cc1` displayed a TGI of over 100 µM.
On the same count and under the same terms, for `O=C1OC(Cc2ccccc2)(N2CCCC2=O)C1c1ccccc1` (stereo unspecified) the value was over 100 µM; for `CC1(C)OC(=O)C(C#N)=C1/C=C/c1coc2ccc(Cl)cc2c1=O`, over 100 µM.

Another assay relates to HL-60(TB) leukemia. Briefly: DTP human tumour cell line panel, 48 h.
`COc1ccc2c(c1)C(=O)C1CC(=O)CCC21` (stereo unspecified) displayed a TGI of over 100 µM.
The same measure, in the same setting: for `COc1cccc(NC(=O)CSc2nnc(-c3ccc(NC(C)=O)cc3)o2)c1` the value was over 100 µM; for `Clc1ccc(Nc2nc3ccccc3nc2-c2cccs2)cc1Cl`, 78.3 µM; for `CCn1c2ccccc2c2ccc3c(c21)C(=O)C=CC3=O`, 12.9 µM.
On the same count and under the same terms, then `O=c1nc(NC2CCCCO2)ccn1CCO` (stereo unspecified), with over 100 µM.
`COC(=O)c1onc(-c2c(OC)cc(OC)cc2OC)c1C(=O)OC` showed a TGI of over 100 µM.
Same read-out and setting: for `CCCP1(=O)C=C(C)C(=C(Cl)Cl)C(C)=C1` (stereo unspecified) the value was 54.7 µM; for `CCCCCCCOc1ccc(/C=C\c2cc[n+](CCCCCCCC[n+]3ccc(/C=C\c4ccc(OCCCCCCC)cc4)cc3)cc2)cc1`, over 100 µM.
Still for that read-out and setting: then `CC(C)(C)OC(=O)NC(Cc1ccc(O)cc1)C(=O)N1CCCC1C(=O)O` (stereo not drawn) (Boc-Tyr-Pro-OH; configuration not given here), with over 100 µM; and `O=C(O)c1ccc(C2COc3ccc(Cl)cc3C2)cc1` (stereo unspecified), with over 100 µM; and `CC(=O)NC(CCCNC(=O)N(CCCl)N=O)C(=O)NCc1ccccc1` (stereo unspecified), with over 100 µM.
The compound `c1ccc2c(c1)C1CCCCCC21N1CCOCC1` (stereo unspecified) returned a concentration for total growth inhibition (TGI) of over 100 µM.
The same measure, in the same setting: then `COc1cccc(OC)c1C(=O)OCc1ccccc1`, with over 100 µM.
`O=C(CSc1nnc(Cc2ccccc2)o1)Nc1ccccc1` returned a TGI of over 100 µM.
Still for that read-out and setting: then `CC(=O)CN(Cc1cc(C)c2c(c1)c1ccccc1n2Cc1ccccc1)S(=O)(=O)c1ccc(C)cc1`, with over 100 µM; and `O=C1OC(Cc2ccccc2)(N2CCCC2=O)C1c1ccccc1` (stereo unspecified), with over 100 µM.

In a further assay the test system is HOP-62 NSCLC. The assay is described as follows: DTP human tumour cell line panel, 48 h.
In turn, `COc1ccc2c(c1)C(=O)C1CC(=O)CCC21` (stereo unspecified) had a TGI of over 100 µM.
The same measure, in the same setting: then `COc1cccc(NC(=O)CSc2nnc(-c3ccc(NC(C)=O)cc3)o2)c1`, with over 100 µM.
Still for that read-out and setting: for `Clc1ccc(Nc2nc3ccccc3nc2-c2cccs2)cc1Cl` the value was over 100 µM; for `CCn1c2ccccc2c2ccc3c(c21)C(=O)C=CC3=O`, 40 µM.
As to `O=c1nc(NC2CCCCO2)ccn1CCO` (stereo unspecified), the TGI was over 100 µM.
The same measure, in the same setting: then `COC(=O)c1onc(-c2c(OC)cc(OC)cc2OC)c1C(=O)OC`, with over 100 µM; and `CCCP1(=O)C=C(C)C(=C(Cl)Cl)C(C)=C1` (stereo unspecified), with over 100 µM.
The same measure, in the same setting: then `CCCCCCCOc1ccc(/C=C\c2cc[n+](CCCCCCCC[n+]3ccc(/C=C\c4ccc(OCCCCCCC)cc4)cc3)cc2)cc1`, with over 100 µM.
`CC(C)(C)OC(=O)NC(Cc1ccc(O)cc1)C(=O)N1CCCC1C(=O)O` (stereo not drawn) (Boc-Tyr-Pro-OH; configuration not given here): the TGI is over 100 µM.
The same measure, in the same setting: for `O=C(O)c1ccc(C2COc3ccc(Cl)cc3C2)cc1` (stereo unspecified) the value was over 100 µM; for `CC(=O)NC(CCCNC(=O)N(CCCl)N=O)C(=O)NCc1ccccc1` (stereo unspecified), over 100 µM.
Same read-out and setting: for `c1ccc2c(c1)C1CCCCCC21N1CCOCC1` (stereo unspecified) the value was over 100 µM; for `COc1cccc(OC)c1C(=O)OCc1ccccc1`, over 100 µM.
As to `O=C(CSc1nnc(Cc2ccccc2)o1)Nc1ccccc1`, the TGI was over 100 µM.
Same read-out and setting: then `Cc1ccc(/C=C/C(=O)C(C)(C)CN2CCCCC2)cc1`, with 29.5 µM; and `CC(=O)CN(Cc1cc(C)c2c(c1)c1ccccc1n2Cc1ccccc1)S(=O)(=O)c1ccc(C)cc1`, with over 100 µM.
On the same count and under the same terms, then `O=C1OC(Cc2ccccc2)(N2CCCC2=O)C1c1ccccc1` (stereo unspecified), with over 100 µM; and `CC1(C)OC(=O)C(C#N)=C1/C=C/c1coc2ccc(Cl)cc2c1=O`, with 79.3 µM.

Another assay has as its system LOX IMVI melanoma. Briefly: DTP human tumour cell line panel, 48 h.
In the case of `COc1ccc2c(c1)C(=O)C1CC(=O)CCC21` (stereo unspecified), the TGI was over 100 µM.
Still for that read-out and setting: for `COc1cccc(NC(=O)CSc2nnc(-c3ccc(NC(C)=O)cc3)o2)c1` the value was over 100 µM.
The same measure, in the same setting: then `O=c1nc(NC2CCCCO2)ccn1CCO` (stereo unspecified), with over 100 µM.
`COC(=O)c1onc(-c2c(OC)cc(OC)cc2OC)c1C(=O)OC` showed a concentration for total growth inhibition (TGI) of over 100 µM.
`CCCCCCCOc1ccc(/C=C\c2cc[n+](CCCCCCCC[n+]3ccc(/C=C\c4ccc(OCCCCCCC)cc4)cc3)cc2)cc1` had a TGI of over 100 µM.
Still for that read-out and setting: then `CC(C)(C)OC(=O)NC(Cc1ccc(O)cc1)C(=O)N1CCCC1C(=O)O` (stereo not drawn) (Boc-Tyr-Pro-OH; configuration not given here), with over 100 µM.
`O=C(O)c1ccc(C2COc3ccc(Cl)cc3C2)cc1` (stereo unspecified) had a TGI of over 100 µM.
Take `c1ccc2c(c1)C1CCCCCC21N1CCOCC1` (stereo unspecified): the TGI was over 100 µM.
Same read-out and setting: for `O=C(CSc1nnc(Cc2ccccc2)o1)Nc1ccccc1` the value was over 100 µM; for `Cc1ccc(/C=C/C(=O)C(C)(C)CN2CCCCC2)cc1`, 23.4 µM; for `CC1(C)OC(=O)C(C#N)=C1/C=C/c1coc2ccc(Cl)cc2c1=O`, 40.5 µM.

The subject of another assay is MALME-3M melanoma. Briefly: DTP human tumour cell line panel, 48 h.
The compound `COc1ccc2c(c1)C(=O)C1CC(=O)CCC21` (stereo unspecified) came in with a TGI of over 100 µM.
Turning to `COc1cccc(NC(=O)CSc2nnc(-c3ccc(NC(C)=O)cc3)o2)c1`, the TGI is over 100 µM.
`Clc1ccc(Nc2nc3ccccc3nc2-c2cccs2)cc1Cl`: the TGI was over 100 µM.
`CCn1c2ccccc2c2ccc3c(c21)C(=O)C=CC3=O` showed a TGI of 22 µM.
The same measure, in the same setting: for `O=c1nc(NC2CCCCO2)ccn1CCO` (stereo unspecified) the value was over 100 µM; for `COC(=O)c1onc(-c2c(OC)cc(OC)cc2OC)c1C(=O)OC`, over 100 µM; for `CCCP1(=O)C=C(C)C(=C(Cl)Cl)C(C)=C1` (stereo unspecified), over 100 µM.
Still for that read-out and setting: then `CCCCCCCOc1ccc(/C=C\c2cc[n+](CCCCCCCC[n+]3ccc(/C=C\c4ccc(OCCCCCCC)cc4)cc3)cc2)cc1`, with 33.7 µM; and `CC(C)(C)OC(=O)NC(Cc1ccc(O)cc1)C(=O)N1CCCC1C(=O)O` (stereo not drawn) (Boc-Tyr-Pro-OH; configuration not given here), with over 100 µM; and `O=C(O)c1ccc(C2COc3ccc(Cl)cc3C2)cc1` (stereo unspecified), with over 100 µM.
The same measure, in the same setting: then `CC(=O)NC(CCCNC(=O)N(CCCl)N=O)C(=O)NCc1ccccc1` (stereo unspecified), with over 100 µM.
Take `O=C(CSc1nnc(Cc2ccccc2)o1)Nc1ccccc1`: the TGI was over 100 µM.
